What was measured:
E. coli = test: Bactericidal assay, E. coli colony count after 30 min incubation with peptide and CuSO4; assay type: cell-based
Method: Bovine TAP was synthesized and purified to a single HPLC peak. Bactericidal assay was carried out by growing wild-type E. coli in tryptic soy broth (TSB) until the OD600 reached 0.2. Cells were then diluted in 50 μl 10 mM NaPO4 buffer, pH 7.4, to 4×10^5 cells/ml. […] Five Al samples were plated on L-agar, and the plates were incubated at 37° C. overnight. Colonies were then counted.

Pseudomonas aeruginosa = test: Bactericidal assay, Pseudomonas strain from a cystic fibrosis patient, with TAP, NaCl and CuSO4; assay type: cell-based
Method: Bovine TAP of 38 amino acids was chemically synthesized by the method of Duclohier ((1989) Biophys. J. 5:1017-1021), and purified to a single peak by HPLC. Bactericidal assay was carried out by growing a wild-type Pseudomonas strain obtained from a cystic fibrosis patient in TSB until the OD600 reached 0.2. Cells were then diluted in 50 μl 10 mM NaPO4 buffer, pH 7.4, to 4×10^5 cells/ml. […] TAP, varying concentrations of NaCl, and 0.1 mM CuS04 were added, and the mixtures were incubated for 30 minutes at 37° C. Five μl samples were taken and plated on L-agar, and the plates were incubated at 37° C. overnight. Colonies were then counted.

[1] = peptide 10 ug/ml, CuSO4 0 mM, 30 min 37 C
[2] = peptide 10 ug/ml, CuSO4 0.01 mM, 30 min 37 C
[3] = peptide 10 ug/ml, CuSO4 0.1 mM, 30 min 37 C
[4] = NaCl 15 mM, TAP 10 μg/ml, CU 0.1 mM
[5] = NaCl 25 mM, TAP 10 μg/ml, CU 0.1 mM
[6] = NaCl 50 mM, TAP 10 μg/ml, CU 0.1 mM
[7] = NaCl 75 mM, TAP 10 μg/ml, CU 0.1 mM
[8] = NaCl 0 mM, TAP 0 μg/ml, CU 0 mM as printed (second such line)
[9] = NaCl 15 mM, TAP 0 μg/ml, CU 0.1 mM
[10] = NaCl 25 mM, TAP 0 μg/ml, CU 0.1 mM
[11] = NaCl 50 mM, TAP 0 μg/ml, CU 0.1 mM
[12] = NaCl 75 mM, TAP 0 μg/ml, CU 0.1 mM

Tracheal Antimicrobial Peptide (NPVSCVRNKGICVPIRCPGSMKQIGTCVGRAVKCCRKK; UniProt P25068 27-64, looked up) [TAP, airway beta-defensin; bovine TAP of 38 amino acids, chemically synthesized and purified to a single HPLC peak]
% SURVIVAL (E. coli; TAP 1 ug/ml, CuSO4 0 mM): 40% | % SURVIVAL (E. coli; TAP 1 ug/ml, CuSO4 0.01 mM): 8% | % SURVIVAL (E. coli; TAP 1 ug/ml, CuSO4 0.1 mM): 2% | # COLONIES (E. coli; peptide 10 ug/ml, Cu 0 mM): 119 | # COLONIES (E. coli; peptide 10 ug/ml, Cu 0.01 mM): 106 | # COLONIES (E. coli; peptide 10 ug/ml, Cu 0.1 mM): 32 | % SURVIVAL (E. coli; [1]): 9% | % SURVIVAL (E. coli; [2]): 8% | % SURVIVAL (E. coli; [3]): 2% | # COLONIES (Pseudomonas aeruginosa; [4]): 233 | % SURVIVAL (Pseudomonas aeruginosa; [4]): 15% | # COLONIES (Pseudomonas aeruginosa; [5]): 89 | % SURVIVAL (Pseudomonas aeruginosa; [5]): 6% | # COLONIES (Pseudomonas aeruginosa; [6]): 242 | % SURVIVAL (Pseudomonas aeruginosa; [6]): 16% | # COLONIES (Pseudomonas aeruginosa; [7]): 363 | % SURVIVAL (Pseudomonas aeruginosa; [7]): 24% | killing of Pseudomonas by the combination of copper ions and TAP versus TAP alone (Pseudomonas aeruginosa; copper 0.1 mM, increasing NaCl concentrations): more effective than TAP alone

magainin
effect of CuSO4 on the antimicrobial activity of the peptide (E. coli; 0.01 to 0.1 mM CuS04): enhanced the antimicrobial activity | # COLONIES (E. coli; peptide 10 ug/ml, Cu 0 mM): 1895 | # COLONIES (E. coli; peptide 10 ug/ml, Cu 0.01 mM): 1654 | # COLONIES (E. coli; peptide 10 ug/ml, Cu 0.1 mM): 975 | % SURVIVAL (E. coli; [1]): 80% | % SURVIVAL (E. coli; [2]): 70% | % SURVIVAL (E. coli; [3]): 41%

O=S(=O)([O-])[O-].[Cu+2] [CuSO4, copper sulfate (cupric sulfate)]
% SURVIVAL (E. coli; No Peptide, CuSO4 0.01 mM): 62% | % SURVIVAL (E. coli; No Peptide, CuSO4 0.1 mM): 22% | % SURVIVAL (E. coli; No Peptide, CuSO4 1 mM): 16% | % SURVIVAL (E. coli; No Peptide, CuSO4 10 mM): 7% | # COLONIES (E. coli; No Peptides, CuSO4 0.01 mM): 1776 | # COLONIES (E. coli; No Peptides, CuSO4 0.1 mM): 640 | # COLONIES (E. coli; No Peptides, CuSO4 1 mM): 443 | # COLONIES (E. coli; No Peptides, CuSO4 10 mM): 211 | # COLONIES (Pseudomonas aeruginosa; [8]): 534 | % SURVIVAL (Pseudomonas aeruginosa; [8]): 35% | # COLONIES (Pseudomonas aeruginosa; [9]): 580 | % SURVIVAL (Pseudomonas aeruginosa; [9]): 39% | # COLONIES (Pseudomonas aeruginosa; [10]): 513 | % SURVIVAL (Pseudomonas aeruginosa; [10]): 34% | # COLONIES (Pseudomonas aeruginosa; [11]): 696 | % SURVIVAL (Pseudomonas aeruginosa; [11]): 46% | # COLONIES (Pseudomonas aeruginosa; [12]): 796 | % SURVIVAL (Pseudomonas aeruginosa; [12]): 53%
